Laboratory results as given in BigSolDB 2.1.

Nc1nc(N)nc(NC2CC2)n1
solubility (mole fraction)
Conditions	278.15 K	283.15 K	288.15 K	293.15 K	298.15 K	303.15 K	308.15 K	313.15 K	318.15 K	323.15 K
in n-butanol	–	0.00073	0.000871	0.00104	0.00126	0.0015	0.00179	0.00217	0.00262	0.0031
in n-heptanol	–	0.000235	0.000322	0.000422	0.000556	0.000737	0.000957	0.00124	0.00162	0.00213
in n-hexanol	–	0.000534	0.000661	0.000816	0.001	0.00123	0.00151	0.00185	0.00227	0.00279
in n-pentanol	–	0.000671	0.000818	0.000981	0.00119	0.00142	0.00171	0.00204	0.00245	0.00291
in n-propanol	–	0.000809	0.000927	0.00113	0.00136	0.00163	0.00191	0.00237	0.00281	0.00327
in propionic acid	0.00472	0.00562	0.00697	0.00847	0.0101	0.0123	0.0148	0.0177	0.0212	–
in sec-butanol	–	0.000301	0.00038	0.00048	0.000581	0.000686	0.000846	0.000995	0.0012	0.00147
in water	–	0.000931	0.00108	0.00125	0.00144	0.00166	0.00193	0.00221	0.00254	0.00293
